From US9884063B2, “Amido-substituted azole compounds” (Bayer Pharma Aktiengesellschaft, priority 2014, dated 2018) come the findings set out here.

This assay has as its target T1, TNKS1 (Homo sapiens, UniProt O95271).
T1 sequence (O95271 1-1327): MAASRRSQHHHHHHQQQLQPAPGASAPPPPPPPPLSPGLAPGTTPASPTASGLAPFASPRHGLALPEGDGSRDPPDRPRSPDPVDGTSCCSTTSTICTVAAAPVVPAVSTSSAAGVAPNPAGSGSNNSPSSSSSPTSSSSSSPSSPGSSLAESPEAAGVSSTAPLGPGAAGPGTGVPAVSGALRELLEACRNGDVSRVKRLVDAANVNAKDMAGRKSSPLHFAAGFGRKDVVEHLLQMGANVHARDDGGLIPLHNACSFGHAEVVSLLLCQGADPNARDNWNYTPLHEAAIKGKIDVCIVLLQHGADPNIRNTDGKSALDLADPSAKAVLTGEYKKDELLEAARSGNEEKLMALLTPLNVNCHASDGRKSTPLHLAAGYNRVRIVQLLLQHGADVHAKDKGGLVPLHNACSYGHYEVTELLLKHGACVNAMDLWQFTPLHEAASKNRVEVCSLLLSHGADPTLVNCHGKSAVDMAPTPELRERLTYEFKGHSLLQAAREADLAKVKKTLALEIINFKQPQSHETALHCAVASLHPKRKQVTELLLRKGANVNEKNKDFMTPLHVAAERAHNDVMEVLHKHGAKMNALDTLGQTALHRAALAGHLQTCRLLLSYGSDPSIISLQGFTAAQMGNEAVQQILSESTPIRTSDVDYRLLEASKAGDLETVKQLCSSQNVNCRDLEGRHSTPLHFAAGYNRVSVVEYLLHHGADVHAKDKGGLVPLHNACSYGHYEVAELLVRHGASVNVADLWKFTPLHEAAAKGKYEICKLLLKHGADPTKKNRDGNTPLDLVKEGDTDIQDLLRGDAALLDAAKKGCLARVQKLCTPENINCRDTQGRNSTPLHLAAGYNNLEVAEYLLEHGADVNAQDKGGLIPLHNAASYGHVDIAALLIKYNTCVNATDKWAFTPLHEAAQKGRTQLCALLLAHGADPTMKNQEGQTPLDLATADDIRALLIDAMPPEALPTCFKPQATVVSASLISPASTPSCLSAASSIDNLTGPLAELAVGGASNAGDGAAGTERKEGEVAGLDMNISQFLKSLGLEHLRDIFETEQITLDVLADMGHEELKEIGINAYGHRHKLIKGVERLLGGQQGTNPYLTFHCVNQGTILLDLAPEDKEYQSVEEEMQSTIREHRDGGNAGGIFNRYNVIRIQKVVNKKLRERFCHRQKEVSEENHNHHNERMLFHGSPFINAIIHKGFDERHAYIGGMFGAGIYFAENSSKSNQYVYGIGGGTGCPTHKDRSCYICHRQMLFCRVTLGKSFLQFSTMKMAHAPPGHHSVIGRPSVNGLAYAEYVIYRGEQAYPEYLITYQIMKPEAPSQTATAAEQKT
Nature of the assay: Modified TNKS1 Assay 3 (BPS kit #80573, biotin-NAD+, 96 well). To be noted: human TNKS1, BPS kit #80573, 96 well. The class given is biochemical. The method in brief:
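Chemiluminescent assay of TNKS1-catalysed ribosylation of a protein substrate with biotin-labelled NAD+, detected via streptavidin-HRP; run per kit protocol. Inhibition lowers the signal, and IC50 is the compound concentration halving the normalised readout.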
As a reminder, the IC50 is the concentration that inhibits the measured activity by half. On to `O=C(Nc1ccc(NC(=O)c2nc[nH]c2C(=O)NCCO)cc1)c1ccc(F)cc1Cl` [Example 132, N^4-{4-[(2-chloro-4-fluorobenzoyl)amino]phenyl}-N^5-(2-hydroxyethyl)-1H-imidazole-4,5-dicarboxamide], for which the 50% inhibitory concentration (IC50) is greater than 500 nM.
In turn, `CC(C)[C@@H](C)NC(=O)c1[nH]cnc1C(=O)Nc1ccc(NC(=O)c2ccc(F)cc2Cl)cc1` [Example 134, N^4-{4-[(2-chloro-4-fluorobenzoyl)amino]phenyl}-N^5-[(2R)-3-methylbutan-2-yl]-1H-imidazole-4,5-dicarboxamide] came in with a concentration for half-maximal inhibition (IC50) of 360 nM.
The result for `CCNC(=O)c1[nH]cnc1C(=O)Nc1ccc(NC(=O)c2ccc(F)cc2Cl)cc1` [Example 138, N^4-{4-[(2-chloro-4-fluorobenzoyl)amino]phenyl}-N^5-ethyl-1H-imidazole-4,5-dicarboxamide] reads 260 nM; that for `O=C(Nc1ccc(NC(=O)c2nc[nH]c2C(=O)NCC(F)F)cc1)c1ccc(F)cc1Cl` [Example 139, N^4-{4-[(2-chloro-4-fluorobenzoyl)amino]phenyl}-N^5-(2,2-difluoroethyl)-1H-imidazole-4,5-dicarboxamide], 290 nM.
With `O=C(Nc1ccc(NC(=O)c2nc[nH]c2C(=O)N2CCC2)cc1)c1ccc(F)cc1Cl` [Example 142, 5-(azetidin-1-ylcarbonyl)-N-{4-[(2-chloro-4-fluorobenzoyl)amino]phenyl}-1H-imidazole-4-carboxamide], the midpoint of inhibition, the IC50, lay at 190 nM.
Molecule `O=C(Nc1ccc(NC(=O)c2nc[nH]c2C(=O)N2CC3(COC3)C2)cc1)c1ccc(F)cc1Cl` [Example 145, N-{4-[(2-chloro-4-fluorobenzoyl)amino]phenyl}-5-(2-oxa-6-azaspiro[3.3]hept-6-ylcarbonyl)-1H-imidazole-4-carboxamide] had a 50% inhibitory concentration (IC50) greater than 500 nM.
Regarding `CC1CCCN(CCNC(=O)c2[nH]cnc2C(=O)Nc2ccc(NC(=O)c3ccccc3Cl)cc2)C1` (stereo not shown) [Example 210, N^4-{4-[(2-chlorobenzoyl)amino]phenyl}-N^5-[2-(3-methylpiperidin-1-yl)ethyl]-1H-imidazole-4,5-dicarboxamide], the IC50 came out at 20 nM.
As for `O=C(Nc1ccc(NC(=O)c2nc[nH]c2C(=O)NCCN2CCC(F)(F)CC2)cc1)c1ccccc1Cl` [Example 214, N^4-{4-[(2-chlorobenzoyl)amino]phenyl}-N^5-[2-(4,4-difluoropiperidin-1-yl)ethyl]-1H-imidazole-4,5-dicarboxamide], the figure is 200 nM; as for `O=C(Nc1ccc(NC(=O)c2nc[nH]c2C(=O)NCCN2CCC(F)(F)CC2)cc1)c1ccc(F)cc1Br` [Example 215, N^4-{4-[(2-bromo-4-fluorobenzoyl)amino]phenyl}-N^5-[2-(4,4-difluoropiperidin-1-yl)ethyl]-1H-imidazole-4,5-dicarboxamide], 210 nM.
Take `CC(C)(N)CNC(=O)c1ncoc1C(=O)Nc1ccc(NC(=O)c2ccc(F)cc2Cl)cc1` [Example 219, N^4-(2-amino-2-methylpropyl)-N^5-{4-[(2-chloro-4-fluorobenzoyl)amino]phenyl}-1,3-oxazole-4,5-dicarboxamide]: the IC50 was greater than 500 nM.
The result for `O=C(Nc1ccc(NC(=O)c2ocnc2C(=O)NCCN2CCCC(F)C2)cc1)c1ccc(F)cc1Cl` (stereo not shown) [Example 220, N^5-{4-[(2-chloro-4-fluorobenzoyl)amino]phenyl}-N^4-[2-(3-fluoropiperidin-1-yl)ethyl]-1,3-oxazole-4,5-dicarboxamide] reads 260 nM; that for `O=C(Nc1ccc(NC(=O)c2ocnc2C(=O)NCCN2CC[C@H](F)C2)cc1)c1ccc(F)cc1Cl` [Example 221, N^5-{4-[(2-chloro-4-fluorobenzoyl)amino]phenyl}-N^4-{2-[(3S)-3-fluoropyrrolidin-1-yl]ethyl}-1,3-oxazole-4,5-dicarboxamide], greater than 500 nM.
On to `O=C(Nc1ccc(NC(=O)c2ocnc2C(=O)NCCN2CC[C@@H](F)C2)cc1)c1ccc(F)cc1Cl` [Example 222, N^5-{4-[(2-chloro-4-fluorobenzoyl)amino]phenyl}-N^4-{2-[(3R)-3-fluoropyrrolidin-1-yl]ethyl}-1,3-oxazole-4,5-dicarboxamide], for which the concentration for half-maximal inhibition (IC50) turned out to be 220 nM.
With `CC(C)(O)CNC(=O)c1[nH]cnc1C(=O)Nc1ccc(NC(=O)c2ccc(F)cc2Cl)cc1` [Example 223, N^4-{4-[(2-chloro-4-fluorobenzoyl)amino]phenyl}-N^5-(2-hydroxy-2-methylpropyl)-1H-imidazole-4,5-dicarboxamide], the IC50 is greater than 500 nM.
Take `O=C(Nc1ccc(NC(=O)c2nc[nH]c2C(=O)NCCN2CCC(F)(F)CC2)cc1)c1ccc(F)cc1Cl` [Example 224, N^4-{4-[(2-chloro-4-fluorobenzoyl)amino]phenyl}-N^5-[2-(4,4-difluoropiperidin-1-yl)ethyl]-1H-imidazole-4,5-dicarboxamide]: 260 nM corresponded to half-maximal inhibition (IC50).
`O=C(Nc1ccc(NC(=O)c2nc[nH]c2C(=O)NCCN2CCCC(F)(F)C2)cc1)c1ccc(F)cc1Cl` [Example 225, N^4-{4-[(2-chloro-4-fluorobenzoyl)amino]phenyl}-N^5-[2-(3,3-difluoropiperidin-1-yl)ethyl]-1H-imidazole-4,5-dicarboxamide]: the IC50 came out at 180 nM.
The molecule `O=C(Nc1ccc(NC(=O)c2nc[nH]c2C(=O)NCCN2CCOCC2)cc1)c1ccc(F)cc1Cl` [Example 227, N^4-{4-[(2-chloro-4-fluorobenzoyl)amino]phenyl}-N^5-[2-(morpholin-4-yl)ethyl]-1H-imidazole-4,5-dicarboxamide] came in with an IC50 of 200 nM.
Consider `O=C(Nc1ccc(NC(=O)c2nc[nH]c2C(=O)NCCN2CCCC2)cc1)c1ccc(F)cc1Cl` [Example 228, N^4-{4-[(2-chloro-4-fluorobenzoyl)amino]phenyl}-N^5-[2-(pyrrolidin-1-yl)ethyl]-1H-imidazole-4,5-dicarboxamide], for which 20 nM corresponded to half-maximal inhibition (IC50).
The molecule `O=C(Nc1ccc(NC(=O)c2nc[nH]c2C(=O)NCCN2CCC(F)CC2)cc1)c1ccc(F)cc1Cl` [Example 230, N^4-{4-[(2-chloro-4-fluorobenzoyl)amino]phenyl}-N^5-[2-(4-fluoropiperidin-1-yl)ethyl]-1H-imidazole-4,5-dicarboxamide] came in with an IC50 of 90 nM.
For the molecule `O=C(Nc1ccc(NC(=O)c2nc[nH]c2C(=O)NCCN2CC[C@@H](F)C2)cc1)c1ccc(F)cc1Cl` [Example 231, N^4-{4-[(2-chloro-4-fluorobenzoyl)amino]phenyl}-N^5-{2-[(3R)-3-fluoropyrrolidin-1-yl]ethyl}-1H-imidazole-4,5-dicarboxamide], inhibition was half-maximal at 170 nM (IC50).
The molecule `O=C(Nc1ccc(NC(=O)c2nc[nH]c2C(=O)NCCN2CC[C@H](F)C2)cc1)c1ccc(F)cc1Cl` [Example 232, N^4-{4-[(2-chloro-4-fluorobenzoyl)amino]phenyl}-N^5-{2-[(3S)-3-fluoropyrrolidin-1-yl]ethyl}-1H-imidazole-4,5-dicarboxamide] displayed an IC50 of 290 nM.
With `O=C(Nc1ccc(NC(=O)c2nc[nH]c2C(=O)NCC2CCOCC2)cc1)c1ccc(F)cc1Cl` [Example 233, N^4-{4-[(2-chloro-4-fluorobenzoyl)amino]phenyl}-N^5-(tetrahydro-2H-pyran-4-ylmethyl)-1H-imidazole-4,5-dicarboxamide], the 50% inhibitory concentration (IC50) came out at 480 nM.
The result for `O=C(Nc1ccc(NC(=O)c2nc[nH]c2C(=O)NC2CCOCC2)cc1)c1ccc(F)cc1Cl` [Example 234, N^4-{4-[(2-chloro-4-fluorobenzoyl)amino]phenyl}-N^5-(tetrahydro-2H-pyran-4-yl)-1H-imidazole-4,5-dicarboxamide] reads 220 nM; that for `O=C(Nc1ccc(NC(=O)c2nc[nH]c2C(=O)NCC2CCOC2)cc1)c1ccc(F)cc1Cl` (stereo not shown) [Example 235, N^4-{4-[(2-chloro-4-fluorobenzoyl)amino]phenyl}-N^5-(tetrahydrofuran-3-ylmethyl)-1H-imidazole-4,5-dicarboxamide], 270 nM; that for `O=C(Nc1ccc(NC(=O)c2nc[nH]c2C(=O)NCC2CCCO2)cc1)c1ccc(F)cc1Cl` (stereo not shown) [Example 237, N^4-{4-[(2-chloro-4-fluorobenzoyl)amino]phenyl}-N^5-(tetrahydrofuran-2-ylmethyl)-1H-imidazole-4,5-dicarboxamide], greater than 500 nM.
